Laboratory results reported in patent US8871753B2, “Macrocyclic compounds and their use as kinase inhibitors” (Incyte Corporation, priority 2008, dated 2014).
Structures can show the parent of a compound that is named as a salt. Where two headings read alike, the source gives them in different places.

Key:
Format in all cases: biochemical
[1] = target: T1, human JAK1 (a.a. 837-1142) (Homo sapiens, UniProt P23458); assay: In vitro JAK kinase assay (HTRF, phosphorylation of a biotinylated peptide), JAK1; conditions: read-out: JAK1 IC50
T1 construct: human JAK1 (a.a. 837-1142); His tag (N); made in house; host or cells: insect cells (baculovirus)
Outline: (§1)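 Kinase reactions ran at room temperature for 1 h with ATP matched per isoform (JAK1 90 μM, JAK2 30 μM, JAK3 3 μM). After an EDTA stop, the phosphorylated biotin-peptide was read by HTRF using Eu-Py20 and SA-APC after 40 min binding.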

[2] = target: T2, human JAK2 (a.a. 828-1132) (Homo sapiens, UniProt O60674); assay: In vitro JAK kinase assay (HTRF, phosphorylation of a biotinylated peptide), JAK2
T2 construct: JAK2 (a.a. 828-1132); His tag (N); made in house; host or cells: insect cells (baculovirus)
Outline: as §1

[3] = target: T3, human JAK3 (a.a. 781-1124) (Homo sapiens, UniProt P52333); assay: In vitro JAK kinase assay (HTRF, phosphorylation of a biotinylated peptide), JAK3
T3 construct: JAK3 (a.a. 781-1124); His tag (N); made in house; host or cells: insect cells (baculovirus)
Outline: as §1

[4] = target: TYK2 (Homo sapiens, UniProt P29597); assay: TYK2 kinase inhibition (Table A1)
[5] = target: T4, Recombinant Human Anaplastic Lymphoma Kinase (Homo sapiens, UniProt Q9UM73); assay: ALK HTRF kinase assay; conditions: for IC50: Table B1, cells without percent sign
T4 construct: purchased Invitrogen, Carlsbad, Calif
Outline: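 IC50 was obtained from a logistic fit of signal versus log inhibitor concentration, using pre- and post-transition baselines and a Hill slope. The signal reported tyrosine phosphorylation of a biotinylated peptide by recombinant human kinase, detected as Eu-to-APC energy transfer.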

[6] = compound at a concentration of 500 nM or 1 mM (not specified), cells shown as percentage
[7] = method AA1 (90 μM ATP) or AA2 (1000 μM ATP), not stated per value
[8] = method AA1 (30 μM ATP) or AA2 (1000 μM ATP), not stated per value
[9] = method AA1 (3 μM ATP) or AA2 (1000 μM ATP), not stated per value
[10] = compound at 500 nM or 1 mM, 90 μM ATP

Chain of TYK2 (P29597 whole entry): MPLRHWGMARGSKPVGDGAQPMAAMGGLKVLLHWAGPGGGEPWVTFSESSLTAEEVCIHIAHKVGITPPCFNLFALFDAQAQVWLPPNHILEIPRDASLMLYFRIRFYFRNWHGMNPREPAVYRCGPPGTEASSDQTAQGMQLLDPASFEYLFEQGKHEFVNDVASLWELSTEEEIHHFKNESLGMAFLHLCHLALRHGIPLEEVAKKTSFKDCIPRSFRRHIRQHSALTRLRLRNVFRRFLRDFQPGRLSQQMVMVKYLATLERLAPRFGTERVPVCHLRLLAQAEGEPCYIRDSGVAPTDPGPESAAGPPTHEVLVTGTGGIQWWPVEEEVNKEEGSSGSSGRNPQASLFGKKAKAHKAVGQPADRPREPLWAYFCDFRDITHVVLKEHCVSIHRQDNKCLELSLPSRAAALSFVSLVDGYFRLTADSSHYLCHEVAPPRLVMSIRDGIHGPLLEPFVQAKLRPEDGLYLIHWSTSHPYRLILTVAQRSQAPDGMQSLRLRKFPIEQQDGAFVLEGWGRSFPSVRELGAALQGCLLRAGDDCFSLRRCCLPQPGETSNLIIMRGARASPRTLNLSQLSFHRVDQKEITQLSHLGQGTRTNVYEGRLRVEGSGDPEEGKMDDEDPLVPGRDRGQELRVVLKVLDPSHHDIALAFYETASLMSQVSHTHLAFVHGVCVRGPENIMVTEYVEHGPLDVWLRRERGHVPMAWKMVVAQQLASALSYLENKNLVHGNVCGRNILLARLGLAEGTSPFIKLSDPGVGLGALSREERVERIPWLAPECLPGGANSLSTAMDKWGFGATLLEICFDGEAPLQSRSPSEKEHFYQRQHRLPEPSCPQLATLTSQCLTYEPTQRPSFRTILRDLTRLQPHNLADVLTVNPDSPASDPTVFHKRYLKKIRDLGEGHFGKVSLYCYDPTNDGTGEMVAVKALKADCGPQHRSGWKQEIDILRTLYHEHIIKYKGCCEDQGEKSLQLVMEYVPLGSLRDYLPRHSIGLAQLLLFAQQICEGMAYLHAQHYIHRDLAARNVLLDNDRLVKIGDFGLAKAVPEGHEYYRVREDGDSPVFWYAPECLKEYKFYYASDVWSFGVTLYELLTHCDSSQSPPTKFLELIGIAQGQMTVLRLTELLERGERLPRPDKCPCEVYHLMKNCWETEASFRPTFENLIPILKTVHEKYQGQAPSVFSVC
T2 sequence (O60674 828-1132): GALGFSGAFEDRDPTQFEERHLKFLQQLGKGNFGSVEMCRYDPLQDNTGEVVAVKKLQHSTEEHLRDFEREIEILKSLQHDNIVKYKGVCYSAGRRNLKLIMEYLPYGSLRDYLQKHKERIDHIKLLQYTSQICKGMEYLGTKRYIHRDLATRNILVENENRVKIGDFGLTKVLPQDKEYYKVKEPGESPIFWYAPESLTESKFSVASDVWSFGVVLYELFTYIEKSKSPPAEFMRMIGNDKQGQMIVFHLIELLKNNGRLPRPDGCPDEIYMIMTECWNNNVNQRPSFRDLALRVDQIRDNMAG
T1 sequence (P23458 849-1154): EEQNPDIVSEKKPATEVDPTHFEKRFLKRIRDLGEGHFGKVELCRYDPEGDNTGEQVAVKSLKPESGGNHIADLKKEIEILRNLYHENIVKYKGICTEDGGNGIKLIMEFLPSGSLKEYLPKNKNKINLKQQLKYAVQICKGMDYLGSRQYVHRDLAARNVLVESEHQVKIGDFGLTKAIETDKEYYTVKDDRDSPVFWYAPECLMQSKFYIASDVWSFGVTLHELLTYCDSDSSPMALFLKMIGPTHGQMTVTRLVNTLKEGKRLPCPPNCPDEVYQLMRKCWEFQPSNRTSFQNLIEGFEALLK
T3 sequence (P52333 781-1124): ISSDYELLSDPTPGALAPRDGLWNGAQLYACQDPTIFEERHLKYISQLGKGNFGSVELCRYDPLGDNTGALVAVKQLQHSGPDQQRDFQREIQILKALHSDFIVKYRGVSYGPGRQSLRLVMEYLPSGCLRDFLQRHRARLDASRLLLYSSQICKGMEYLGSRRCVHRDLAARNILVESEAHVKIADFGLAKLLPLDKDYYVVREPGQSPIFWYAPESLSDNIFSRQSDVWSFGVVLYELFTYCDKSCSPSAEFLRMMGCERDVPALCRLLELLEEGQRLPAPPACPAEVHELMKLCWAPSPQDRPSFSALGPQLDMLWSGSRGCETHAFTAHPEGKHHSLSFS
T4 sequence (Q9UM73 19-1620): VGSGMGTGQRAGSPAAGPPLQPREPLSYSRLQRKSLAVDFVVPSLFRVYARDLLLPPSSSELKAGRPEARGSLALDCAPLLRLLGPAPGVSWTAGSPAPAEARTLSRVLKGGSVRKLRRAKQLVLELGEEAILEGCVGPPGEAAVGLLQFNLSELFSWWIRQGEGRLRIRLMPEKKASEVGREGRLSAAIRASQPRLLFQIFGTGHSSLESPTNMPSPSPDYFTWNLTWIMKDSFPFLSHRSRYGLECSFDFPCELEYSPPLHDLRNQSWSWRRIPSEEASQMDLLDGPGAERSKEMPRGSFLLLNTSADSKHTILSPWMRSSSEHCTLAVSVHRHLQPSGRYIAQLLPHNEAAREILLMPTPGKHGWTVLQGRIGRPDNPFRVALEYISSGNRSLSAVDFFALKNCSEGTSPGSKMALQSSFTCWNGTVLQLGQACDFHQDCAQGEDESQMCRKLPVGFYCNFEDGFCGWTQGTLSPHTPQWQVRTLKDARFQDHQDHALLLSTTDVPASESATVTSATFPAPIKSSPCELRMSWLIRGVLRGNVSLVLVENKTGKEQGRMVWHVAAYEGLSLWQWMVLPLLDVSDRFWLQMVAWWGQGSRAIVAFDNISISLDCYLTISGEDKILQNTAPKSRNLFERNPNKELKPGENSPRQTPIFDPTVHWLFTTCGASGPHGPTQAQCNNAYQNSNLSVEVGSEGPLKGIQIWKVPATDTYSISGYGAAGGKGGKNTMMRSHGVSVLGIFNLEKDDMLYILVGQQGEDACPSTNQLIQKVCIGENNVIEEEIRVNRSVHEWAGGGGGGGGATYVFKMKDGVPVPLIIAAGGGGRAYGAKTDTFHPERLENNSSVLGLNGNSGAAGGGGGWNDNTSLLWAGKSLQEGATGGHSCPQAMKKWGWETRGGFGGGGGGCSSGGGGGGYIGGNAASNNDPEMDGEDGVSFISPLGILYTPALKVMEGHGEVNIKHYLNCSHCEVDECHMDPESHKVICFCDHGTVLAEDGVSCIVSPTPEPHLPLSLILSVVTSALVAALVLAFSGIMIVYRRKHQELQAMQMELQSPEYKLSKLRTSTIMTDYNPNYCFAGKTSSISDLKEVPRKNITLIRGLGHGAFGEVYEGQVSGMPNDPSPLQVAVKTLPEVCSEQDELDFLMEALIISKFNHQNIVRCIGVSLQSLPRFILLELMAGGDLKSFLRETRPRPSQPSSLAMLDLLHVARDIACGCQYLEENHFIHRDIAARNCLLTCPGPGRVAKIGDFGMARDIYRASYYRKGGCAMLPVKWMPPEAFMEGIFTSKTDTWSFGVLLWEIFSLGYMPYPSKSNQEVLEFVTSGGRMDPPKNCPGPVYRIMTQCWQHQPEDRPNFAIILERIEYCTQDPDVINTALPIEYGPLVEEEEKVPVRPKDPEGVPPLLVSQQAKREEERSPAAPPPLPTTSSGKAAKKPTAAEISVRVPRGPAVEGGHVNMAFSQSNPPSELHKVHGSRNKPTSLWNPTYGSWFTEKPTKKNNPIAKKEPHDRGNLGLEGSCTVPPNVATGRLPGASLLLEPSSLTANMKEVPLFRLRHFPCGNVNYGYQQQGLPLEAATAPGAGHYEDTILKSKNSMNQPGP

IC50 ([1]; Table B1) [nM]	IC50 ([2]; Table B1) [nM]	IC50 ([3]; Table B1) [nM]	IC50 ([4]; Table B1) [nM]	ALK % of inhibition at a concentration of 500 nM or 1 mM [5, 6] [%]	IC50 [1, 7] [nM]	IC50 [2, 8] [nM]	IC50 [3, 9] [nM]	IC50 [4] [nM]	ALK % of inhibition at a concentration of 500 nM or 1 mM [5, 10] [%]	IC50 [5] [nM]	SMILES
5.6	6.7	30	24	13							Cc1cccc(Cl)c1NC(=O)Nc1ccc2cc1CCc1cccc(c1)Nc1ncc(Cl)c(n1)N2 [Example B122, N-(2-Chloro-6-methylphenyl)-N′-[6-chloro-2,4,8,22-tetraazatetracyclo[14.3.1.1(3,7).1(9,13)]docosa-1(20),3(22),4,6,9(21),10,12,16,18-nonaen-12-yl]urea trifluoroacetate]
					15	24	133	24	25		CC(C)NC(=O)N1CCC(CC(=O)Nc2ccc3cc2CCc2cncc(c2)Nc2ncc(Cl)c(n2)N3)CC1 [Example A99, 4-(2-{[6-Chloro-2,4,8,18,22-pentaazatetracyclo[14.3.1.1(3,7).1(9,13)]docosa-1(20),3(22),4,6,9(21),10,12,16,18-nonaen-12-yl]amino}-2-oxoethyl)-N-isopropylpiperidine-1-carboxamide bis(trifluoroacetate)]
2.8	12	51	30	15							O=C(Nc1ccc2cc1CCc1cccc(c1)Nc1ncc(Cl)c(n1)N2)N[C@H]1CCN(C(=O)c2cccnc2)C1 [Example B171, N-[6-Chloro-2,4,8,22-tetraazatetracyclo[14.3.1.1(3,7).1(9,13)]docosa-1(20),3(22),4,6,9(21),10,12,16,18-nonaen-12-yl]-N′-[(3S)-1-(pyridin-3-ylcarbonyl)pyrrolidin-3-yl]urea bis(trifluoroacetate)]
					12	10	60	32	21		CC(Oc1ccc2cc1CCc1cccc(c1)Nc1ncc(Cl)c(n1)N2)C(=O)Nc1ccccc1 (centres unmarked) [Example A16, 2-{[6-Chloro-2,4,8,22-tetraazatetracyclo[14.3.1.1(3,7).1(9,13)]docosa-1(20),3(22),4,6,9(21),10,12,16,18-nonaen-12-yl]oxy}-N-phenylpropanamide trifluoroacetate]
					1.9	2.5	12	2.5	41		CCS(=O)(=O)N1CCC(CC(=O)Nc2ccc3cc2CCc2cccc(c2)Nc2ncc(Cl)c(n2)N3)CC1 [Example A83, N-[6-Chloro-2,4,8,22-tetraazatetracyclo[14.3.1.1(3,7).1(9,13)]docosa-1(20),3(22),4,6,9(21),10,12,16,18-nonaen-12-yl]-2-[1-(ethylsulfonyl)piperidin-4-yl]acetamide trifluoroacetate]
7	20	151	33	37							CCc1cccc(NC(=O)Nc2ccc3cc2CCc2cccc(c2)Nc2ncc(Cl)c(n2)N3)c1 [Example B99, N-[6-Chloro-2,4,8,22-tetraazatetracyclo[14.3.1.1(3,7).1(9,13)]docosa-1(20), 3(22),4,6,9(21),10,12,16,18-nonaen-12-yl]-N′-(3-ethylphenyl)urea trifluoroacetate]
					6.5	3.7	57	3	29		CC(C)C(=O)N1CCC(CC(=O)Nc2ccc3cc2CCc2cccc(c2)Nc2ncc(Cl)c(n2)N3)CC1 [Example A89, N-[6-Chloro-2,4,8,22-tetraazatetracyclo[14.3.1.1(3,7).1(9,13)]docosa-1(20),3(22),4,6,9(21),10,12,16,18-nonaen-12-yl]-2-(1-isobutyrylpiperidin-4-yl)acetamide trifluoroacetate]
27	67	> 400	36	66							O=C(Nc1ccc2cc1CCc1cncc(c1)Nc1ncc(Cl)c(n1)N2)N1CCN(c2ccc(F)cc2)CC1 [Example B297, N-[6-Chloro-2,4,8,18,22-pentaazatetracyclo[14.3.1.1(3,7).1(9,13)]docosa-1(20),3(22),4,6,9(21),10,12,16,18-nonaen-12-yl]-4-(4-fluorophenyl)piperazine-1-carboxamide tris(trifluoroacetate)]
11	8.4	277	19							> 1000	Cc1cnc2nc1Nc1cccc(c1)CCc1cccc(c1)N2 [Example B2, 6-Methyl-2,4,8,22-tetraazatetracyclo[14.3.1.1(3,7).1(9,13)]docosa-1(20),3(22),4,6,9(21),10,12,16,18-nonaene trifluoroacetate]
					3.5	12	> 100	13	19		N#Cc1ccccc1NC(=O)N1CCC(CC(=O)Nc2ccc3cc2CCc2cncc(c2)Nc2ncc(Cl)c(n2)N3)CC1 [Example A141, 4-(2-{[6-Chloro-2,4,8,18,22-pentaazatetracyclo[14.3.1.1(3,7).1(9,13)]docosa-1(20),3(22),4,6,9(21),10,12,16,18-nonaen-12-yl]amino}-2-oxoethyl)-N-(2-cyanophenyl)piperidine-1-carboxamide bis(trifluoroacetate)]
1.4	0.55	3.6	2.1							430	Cc1noc(C)c1C(=O)Nc1ccc2cc1CCc1cccc(c1)Nc1ncc(Cl)c(n1)N2 [Example B40, N-[6-Chloro-2,4,8,22-tetraazatetracyclo[14.3.1.1(3,7).1(9,13)]docosa-1(20), 3(22),4,6,9(21),10,12,16,18-nonaen-12-yl]-3,5-dimethylisoxazole-4-carboxamide trifluoroacetate]
4	7.7	52	13	24							CC(C)NC(=O)NCCNC(=O)Nc1ccc2cc1CCc1cccc(c1)Nc1ncc(Cl)c(n1)N2 [Example B188, N-[6-Chloro-2,4,8,22-tetraazatetracyclo[14.3.1.1(3,7).1(9,13)]docosa-1(20),3(22),4,6,9(21),10,12,16,18-nonaen-12-yl]-N′-(2-{[(isopropylamino)carbonyl]amino}ethyl)urea trifluoroacetate]
					0.6	2.5	39	5.4	34		Cc1cc(C(=O)N2CCC(CCC(=O)Nc3ccc4cc3CCc3cccc(c3)Nc3ncc(Cl)c(n3)N4)CC2)no1 [Example A124, N-[6-Chloro-2,4,8,22-tetraazatetracyclo[14.3.1.1(3,7).1(9,13)]docosa-1(20),3(22),4,6,9(21),10,12,16,18-nonaen-12-yl]-3-{1-[(5-methylisoxazol-3-yl)carbonyl]piperidin-4-yl}propanamide trifluoroacetate]
1.2	0.73	10	3.2							150	N#Cc1ccc(C(=O)Nc2ccc3cc2CCc2cccc(c2)Nc2ncc(Cl)c(n2)N3)cc1 [Example B64, N-[6-Chloro-2,4,8,22-tetraazatetracyclo[14.3.1.1(3,7).1(9,13)]docosa-1(20), 3(22),4,6,9(21),10,12,16,18-nonaen-12-yl]-4-cyanobenzamide trifluoroacetate]
					90	> 400	> 400	> 400	5.9		N#Cc1ccc(C(F)(F)F)cc1N1CCC(CC(=O)Nc2ccc3cc2CCc2cncc(c2)Nc2ncc(Cl)c(n2)N3)CC1 [Example A237, N-[6-Chloro-2,4,8,18,22-pentaazatetracyclo[14.3.1.1(3,7).1(9,13)]docosa-1(20),3(22),4,6,9(21),10,12,16,18-nonaen-12-yl]-2-{1-[2-cyano-5-(trifluoromethyl)phenyl]piperidin-4-yl}acetamide tris(trifluoroacetate)]
					20	57	195	110	18		CC(C)(C)OC(=O)N1CCC(CC(=O)Nc2ccc3cc2CCc2cncc(c2)Nc2ncc(Cl)c(n2)N3)CC1 [Example A70, tert-Butyl 4-(2-{[6-chloro-2,4,8,18,22-pentaazatetracyclo[14.3.1.1(3,7).1(9,13)]docosa-1(20),3(22),4,6,9(21),10,12,16,18-nonaen-12-yl]amino}-2-oxoethyl)piperidine-1-carboxylate bis(trifluoroacetate)]
